# Reference: paper PMC8489232, “Structural and catalytic characterization of Blastochloris viridis and Pseudomonas aeruginosa homospermidine synthases supports the essential role of cation–π interaction” (Acta Crystallographica. Section D, Structural Biology, 2021)
# Positions count from the first letter of the chain named. In names and notes the source's numbering stands.
# T1: PaHSS (Pseudomonas aeruginosa, UniProt Q6X2Y9)
# T1 construct: gene CL-17; full length, codon-optimized synthetic gene in pETM-14, E. coli BL21(DE3) Gold; N-terminal 6xHis tag removed with HRV3C protease; 52 kDa monomer in solution (SEC-MALS); crystalline dimers
# T1 sequence (Q6X2Y9 1-469): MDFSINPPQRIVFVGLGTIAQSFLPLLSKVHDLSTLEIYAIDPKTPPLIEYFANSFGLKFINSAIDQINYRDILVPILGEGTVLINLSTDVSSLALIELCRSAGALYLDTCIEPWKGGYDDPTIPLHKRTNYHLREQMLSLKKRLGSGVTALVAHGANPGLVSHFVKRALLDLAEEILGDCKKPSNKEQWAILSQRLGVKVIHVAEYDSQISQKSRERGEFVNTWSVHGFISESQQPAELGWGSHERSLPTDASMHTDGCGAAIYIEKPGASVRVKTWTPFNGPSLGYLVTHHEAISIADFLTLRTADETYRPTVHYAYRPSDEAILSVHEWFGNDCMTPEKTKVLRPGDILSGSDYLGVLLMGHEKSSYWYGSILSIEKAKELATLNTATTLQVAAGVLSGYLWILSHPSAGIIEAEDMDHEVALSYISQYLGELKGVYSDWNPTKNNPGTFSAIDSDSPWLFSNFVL
# B1: Blastochloris viridis homospermidine synthase, wild type (enzyme)
# chain: MTDWPVYHRIDGPIVMIGFGSIGRGTLPLIERHFAFDRSKLVVIDPSDEARKLAEARGVRFIQQAVTRDNYRELLVPLLTAGPGQGFCVNLSVDTSSLDIMELARENGALYIDTVVEPWLGFYFDPDLKPEARSNYALRETVLAARRNKPGGTTAVSCCGANPGMVSWFVKQALVNLAADLGVTGEEPTTREEWARLAMDLGVKGIHIAERDTQRASFPKPFDVFVNTWSVEGFVSEGLQPAELGWGTFERWMPDNARGHDSGCGAGIYLLQPGANTRVRSWTPTAMAQYGFLVTHNESISIADFLTVRDAAGQAVYRPTCHYAYHPCNDAVLSLHEMFGSGKRQSDWRILDETEIVDGIDELGVLLYGHGKNAYWYGSQLSIEETRRIAPDQNATGLQVSSAVLAGMVWALENPNAGIVEADDLDFRRCLEVQTPYLGPVVGVYTDWTPLAGRPGLFPEDIDTSDPWQFRNVLVRD
# notes: also called BvHSS; wild-type BvHSS; source: E. coli BL21(DE3) Gold, purified (as described previously, Krossa et al., 2016)
# B2: Blastochloris viridis homospermidine synthase variant E210Q (enzyme)
# chain: B1 chain with E210Q
# notes: homospermidine synthase of Blastochloris viridis, UniProtKB O32323, single-residue variant made by site-directed mutagenesis of BvHSS pETM-14; Same construct as m2 with one substitution; also called BvHSS (E210Q); BvHSS E210Q; source: E. coli BL21(DE3) Gold, purified (as described previously, Krossa et al., 2016)
# B3: Blastochloris viridis homospermidine synthase variant E117Q (enzyme)
# chain: B1 chain with E117Q
# notes: homospermidine synthase of Blastochloris viridis, UniProtKB O32323, single-residue variant made by site-directed mutagenesis of BvHSS pETM-14; Same construct as m2 with one substitution; also called BvHSS (E117Q); BvHSS E117Q; source: E. coli BL21(DE3) Gold, purified (as described previously, Krossa et al., 2016)
# B4: Blastochloris viridis homospermidine synthase variant W229E (enzyme)
# chain: B1 chain with W229E
# notes: homospermidine synthase of Blastochloris viridis, UniProtKB O32323, single-residue variant made by site-directed mutagenesis of BvHSS pETM-14; Same construct as m2 with one substitution; also called BvHSS (W229E); BvHSS W229E; source: E. coli BL21(DE3) Gold, purified (as described previously, Krossa et al., 2016)
# B5: Blastochloris viridis homospermidine synthase variant W229F (enzyme)
# chain: B1 chain with W229F
# notes: homospermidine synthase of Blastochloris viridis, UniProtKB O32323, single-residue variant made by site-directed mutagenesis of BvHSS pETM-14; Same construct as m2 with one substitution; also called BvHSS (W229F); BvHSS W229F; source: E. coli BL21(DE3) Gold, purified (as described previously, Krossa et al., 2016)
# B6: Blastochloris viridis homospermidine synthase variant W229A (enzyme)
# chain: B1 chain with W229A
# notes: homospermidine synthase of Blastochloris viridis, UniProtKB O32323, single-residue variant made by site-directed mutagenesis of BvHSS pETM-14; Same construct as m2 with one substitution; also called BvHSS (W229A); BvHSS W229A; source: E. coli BL21(DE3) Gold, purified (as described previously, Krossa et al., 2016)
# B7: Blastochloris viridis homospermidine synthase variant E210A (enzyme)
# chain: B1 chain with E210A
# notes: homospermidine synthase of Blastochloris viridis, UniProtKB O32323, single-residue variant made by site-directed mutagenesis of BvHSS pETM-14; Same construct as m2 with one substitution; also called BvHSS (E210A); BvHSS E210A; source: E. coli BL21(DE3) Gold, purified (as described previously, Krossa et al., 2016)
# Columns and labels:
# BvHSS [1] = target: T2, BvHSS (Blastochloris viridis, UniProt O32323, W229F); assay: X-ray crystal structure, […] A; assay type: binding; details: 1.3 mM NAD+ in protein solution; both subunits; PUT soak, no PUT modelled
# T2 construct: gene hss; full length in pETM-14, E. coli BL21(DE3) Gold; dimer, 106 kDa theoretical
# BvHSS [2] = target: T3, BvHSS (Blastochloris viridis, UniProt O32323, E117Q); assay: X-ray crystal structure, […] A; assay type: binding; details: 1.3 mM NAD+ in protein solution; both subunits; two ribose conformers
# T3 construct: gene hss; full length in pETM-14, E. coli BL21(DE3) Gold; dimer, 106 kDa theoretical
# BvHSS [3] = target: T4, BvHSS (Blastochloris viridis, UniProt O32323, W229E); assay: X-ray crystal structure, […] A; assay type: binding; details: 1.3 mM NAD+ in protein solution; both subunits; PUT soak, no PUT modelled
# T4 construct: gene hss; full length in pETM-14, E. coli BL21(DE3) Gold; dimer, 106 kDa theoretical
# PaHSS = target: T1, PaHSS; assay: X-ray crystal structure, […] A; assay type: binding
# BvHSS [4] = target: T5, BvHSS (Blastochloris viridis, UniProt O32323, E210A); assay: X-ray crystal structure, […] A; assay type: binding; details: 1.3 mM NAD+ in protein solution; both subunits
# T5 construct: gene hss; full length in pETM-14, E. coli BL21(DE3) Gold; dimer, 106 kDa theoretical
# BvHSS [5] = target: T6, BvHSS (Blastochloris viridis, UniProt O32323, W229A); assay: X-ray crystal structure, […] A; assay type: binding; details: 1.3 mM NAD+ in protein solution; both subunits; PUT soak
# T6 construct: gene hss; full length in pETM-14, E. coli BL21(DE3) Gold; dimer, 106 kDa theoretical
# BvHSS [6] = target: T7, BvHSS (Blastochloris viridis, UniProt O32323, E210Q); assay: X-ray crystal structure, […] A; assay type: binding; details: 1.3 mM NAD+ in protein solution; both subunits
# T7 construct: gene hss; full length in pETM-14, E. coli BL21(DE3) Gold; dimer, 106 kDa theoretical
# [7] = target: the molecule itself; assay: SEC-MALS; HPLC-MALS of the purified proteins in solution; data not shown; method in Supplementary Section S1
# [8] = target: the molecule itself; assay: crystal structure; BvHSS variants, hanging-drop vapor diffusion at 291 K, sodium acetate pH 4.6-4.8, PEG 10 000, with NAD+ and agmatine sulfate; space group P22(1)2(1), two molecules in the asymmetric unit
# T3 sequence (O32323 whole entry E117Q): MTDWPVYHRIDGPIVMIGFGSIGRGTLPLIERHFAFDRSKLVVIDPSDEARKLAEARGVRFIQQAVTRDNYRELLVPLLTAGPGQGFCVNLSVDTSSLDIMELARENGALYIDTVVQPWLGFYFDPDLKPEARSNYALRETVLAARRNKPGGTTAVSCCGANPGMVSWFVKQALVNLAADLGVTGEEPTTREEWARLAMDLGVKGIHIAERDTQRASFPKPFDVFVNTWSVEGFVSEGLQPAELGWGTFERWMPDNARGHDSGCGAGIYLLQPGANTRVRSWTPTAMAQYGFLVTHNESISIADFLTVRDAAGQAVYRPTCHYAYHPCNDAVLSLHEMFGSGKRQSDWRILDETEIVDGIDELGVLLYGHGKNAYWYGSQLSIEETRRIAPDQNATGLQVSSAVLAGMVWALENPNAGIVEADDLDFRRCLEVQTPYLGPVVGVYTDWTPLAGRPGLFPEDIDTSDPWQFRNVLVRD
# T2 sequence (O32323 whole entry W229F): as the sequence (O32323 whole entry E117Q) above, with Q117E, W229F counted along it
# T6 sequence (O32323 whole entry W229A): as the sequence (O32323 whole entry E117Q) above, with Q117E, W229A counted along it
# T4 sequence (O32323 whole entry W229E): as the sequence (O32323 whole entry E117Q) above, with Q117E, W229E counted along it
# T7 sequence (O32323 whole entry E210Q): as the sequence (O32323 whole entry E117Q) above, with Q117E, E210Q counted along it
# T5 sequence (O32323 whole entry E210A): as the sequence (O32323 whole entry E117Q) above, with Q117E, E210A counted along it
molecule,measurement,setting,value
"NC(=O)c1ccc[n+]([C@@H]2O[C@H](COP(=O)(O)OP(=O)(O)OC[C@H]3O[C@@H](n4cnc5c(N)ncnc54)[C@H](O)[C@@H]3O)[C@@H](O)[C@H]2O)c1 [NAD^+, nicotinamide adenine dinucleotide]","X-ray crystal structure, 2.08 A",BvHSS [1],with each subunit containing an NAD^+ molecule in the binding pocket
same,"X-ray crystal structure, 1.77 A",BvHSS [2],with each subunit containing an NAD^+ molecule in the binding pocket
same,"X-ray crystal structure, 2.76 A",BvHSS [3],with each subunit containing an NAD^+ molecule in the binding pocket
same,"X-ray crystal structure, 2.42 A","PaHSS; 1.3 mM NAD+ in protein solution, all six chains",All six PaHSS molecules contain an NAD^+ molecule in their binding pockets
same,"X-ray crystal structure, 1.75 A",BvHSS [4],with each subunit containing an NAD^+ molecule in the binding pocket
same,"X-ray crystal structure, 2.00 A",BvHSS [5],with each subunit containing an NAD^+ molecule in the binding pocket
same,"X-ray crystal structure, 1.93 A",BvHSS [6],with each subunit containing an NAD^+ molecule in the binding pocket
"NCCCCN [PUT, 1,4-diaminobutane]","X-ray crystal structure, 2.42 A","PaHSS; PUT not added, assumed co-purified from E. coli, active site of chains A, C and E, NAD+ present","molecules A, C and E additionally contain a PUT molecule in the active site"
B1,stoichiometry N,[7],2
B2,binding result,[8],binds
B3,binding result,[8],binds
B4,binding result,[8],binds
B5,binding result,[8],binds
B6,binding result,[8],binds
B7,binding result,[8],binds
